Marks after values point to notes of the source that are not given here.
Columns and labels:
[1] = Steady-state plasma pharmacokinetics; assay type: in vivo, human; conditions: for Cmax: GM Cmax
[2] = Steady-state intracellular; assay type: in vivo, human; conditions: IC (PBMC); for GM AUC: AUC0–12; for Cmax: GM Cmax
[3] = 10 HIV-infected individuals, 6 also on twice-daily darunavir/ritonavir; cited from earlier work
HIV = conditions: 800 mg once daily versus approved 400 mg twice-daily dose; cited from earlier work
[4] = IC accumulation: ratio of IC drug to drug in plasma; conditions: human, GM IC to Plasma Ratio
[5] = group 1, period 2 (day 35): raltegravir 400 mg twice daily + darunavir/ritonavir 800/100 mg once daily
[6] = group 1, period 2 (day 35): raltegravir 400 mg twice daily + darunavir/ritonavir 800/100 mg once daily, listed as raltegravir
[7] = group 2, period 2 (day 35): raltegravir 800 mg once daily + darunavir/ritonavir 800/100 mg once daily

Cc1nnc(C(=O)NC(C)(C)c2nc(C(=O)NCc3ccc(F)cc3)c(O)c(=O)n2C)o1 [Raltegravir, raltegravir]
GM Ctrough [1, 5]: 20 ng/mL
GM Ctrough [1, 6]: 20 (17–25) ng/mL
GM Ctrough [1, 7]: 11 ^* ng/mL
Cmax ([1]; human, group 1, period 2 (day 35): raltegravir 400 mg twice daily + darunavir/ritonavir 800/100 mg once daily): 0.438 µg/mL
concentration at 12 h ([1]; human, GM Ctrough, group 1, period 1 (day 21): raltegravir 400 mg twice daily, without darunavir/ritonavir): 0.023 µg/mL
concentration at 12 h ([1]; human, GM Ctrough, group 2, period 1 (day 21): raltegravir 400 mg twice daily, without darunavir/ritonavir): 0.028 µg/mL
Cmax ([1]; human, oral, 400 mg, group 1, period 1 (day 21): raltegravir 400 mg twice daily, without darunavir/ritonavir): 0.533 µg/mL
Cmax ([1]; human, oral, 400 mg, group 2, period 1 (day 21): raltegravir 400 mg twice daily, without darunavir/ritonavir): 0.361 µg/mL
Cmax ([1]; human, oral, group 2, period 2 (day 35): raltegravir 800 mg once daily + darunavir/ritonavir 800/100 mg once daily): 0.556 µg/mL
concentration at 12 h ([1]; human, oral, GM Ctrough, group 1, period 1 (day 21): raltegravir 400 mg twice daily, without darunavir/ritonavir): 0.023 µg/mL
concentration at 12 h ([1]; human, oral, GM Ctrough, group 2, period 1 (day 21): raltegravir 400 mg twice daily, without darunavir/ritonavir): 0.028 µg/mL
concentration at 24 h ([1]; human, oral, GM Ctrough, group 2, period 2 (day 35): raltegravir 800 mg once daily + darunavir/ritonavir 800/100 mg once daily): 0.011 µg/mL
GM AUC ([2]; group 1, period 1 (day 21): raltegravir 400 mg twice daily, without darunavir/ritonavir): 9010 ng/h/mL
GM AUC ([2]; group 1, period 1 (day 21): raltegravir 400 mg twice daily, without darunavir/ritonavir, listed as raltegravir): 9010 (7852–13,519) ng·h^−1·mL^−1
GM Ctrough [2, 5]: 105 ng/mL
GM Ctrough [2, 6]: 105 (51–295) ng/mL
GM AUC ([2]; group 2, period 1 (day 21): raltegravir 400 mg twice daily, without darunavir/ritonavir): 8780 ng/h/mL
GM AUC ([2]; group 2, period 1 (day 21): raltegravir 400 mg twice daily, without darunavir/ritonavir, listed as raltegravir): 8780 (7286–16,400) ng·h^−1·mL^−1
GM Ctrough [2, 7]: 22 ng/mL
Cmax ([2]; human, PBMC (intracellular), oral, 400 mg, group 2, period 1 (day 21): raltegravir 400 mg twice daily, without darunavir/ritonavir): 1.87 µg/mL
Cmax ([2]; human, PBMC, 400 mg, group 1, period 1 (day 21): raltegravir 400 mg twice daily, without darunavir/ritonavir): 2.31 µg/mL
concentration at 12 h ([2]; human, PBMC, GM Ctrough, group 1, period 1 (day 21): raltegravir 400 mg twice daily, without darunavir/ritonavir): 0.101 µg/mL
concentration at 12 h ([2]; human, PBMC, GM Ctrough, group 2, period 1 (day 21): raltegravir 400 mg twice daily, without darunavir/ritonavir): 0.115 µg/mL
Cmax ([2]; human, PBMC, oral, 400 mg, group 1, period 1 (day 21): raltegravir 400 mg twice daily, without darunavir/ritonavir): 2.31 µg/mL
Cmax ([2]; human, PBMC, oral, group 1, period 2 (day 35): raltegravir 400 mg twice daily + darunavir/ritonavir 800/100 mg once daily): 2.17 µg/mL
Cmax ([2]; human, PBMC, oral, group 2, period 2 (day 35): raltegravir 800 mg once daily + darunavir/ritonavir 800/100 mg once daily): 2.82 µg/mL
concentration at 12 h ([2]; human, PBMC, oral, GM Ctrough, group 1, period 1 (day 21): raltegravir 400 mg twice daily, without darunavir/ritonavir): 0.101 µg/mL
concentration at 12 h ([2]; human, PBMC, oral, GM Ctrough, group 2, period 1 (day 21): raltegravir 400 mg twice daily, without darunavir/ritonavir): 0.115 µg/mL
concentration at 24 h ([2]; human, PBMC, oral, GM Ctrough, group 2, period 2 (day 35): raltegravir 800 mg once daily + darunavir/ritonavir 800/100 mg once daily): 0.022 µg/mL
decrease of plasma AUC [3]: 33%
virological response (HIV): did not show the same virological response
Kp ([4]; PBMC (intracellular)/plasma, oral, 400 mg, AUC, group 1, period 1 (day 21): raltegravir 400 mg twice daily, without darunavir/ritonavir): 4.9
Kp ([4]; PBMC (intracellular)/plasma, oral, 400 mg, AUC, group 2, period 1 (day 21): raltegravir 400 mg twice daily, without darunavir/ritonavir): 5.6
Kp ([4]; PBMC (intracellular)/plasma, oral, 400 mg, Cmax, group 1, period 1 (day 21): raltegravir 400 mg twice daily, without darunavir/ritonavir): 4.6
Kp ([4]; PBMC (intracellular)/plasma, oral, 400 mg, Cmax, group 2, period 1 (day 21): raltegravir 400 mg twice daily, without darunavir/ritonavir): 5.5
Kp ([4]; PBMC (intracellular)/plasma, oral, 400 mg, Ctrough, group 1, period 1 (day 21): raltegravir 400 mg twice daily, without darunavir/ritonavir): 5.1
Kp ([4]; PBMC (intracellular)/plasma, oral, 400 mg, Ctrough, group 2, period 1 (day 21): raltegravir 400 mg twice daily, without darunavir/ritonavir): 4.6
Kp ([4]; intracellular (PBMC) / plasma, AUC (raltegravir), group 1, period 2 (day 35): raltegravir 400 mg twice daily + darunavir/ritonavir 800/100 mg once daily): 5.8
Kp ([4]; intracellular (PBMC) / plasma, AUC (raltegravir), group 2, period 2 (day 35): raltegravir 800 mg once daily + darunavir/ritonavir 800/100 mg once daily): 6
Kp ([4]; intracellular (PBMC) / plasma, oral, Cmax, group 1, period 2 (day 35): raltegravir 400 mg twice daily + darunavir/ritonavir 800/100 mg once daily): 5.6
Kp ([4]; intracellular (PBMC) / plasma, oral, Cmax, group 2, period 2 (day 35): raltegravir 800 mg once daily + darunavir/ritonavir 800/100 mg once daily): 6.8
Kp ([4]; intracellular (PBMC) / plasma, oral, Ctrough, group 1, period 2 (day 35): raltegravir 400 mg twice daily + darunavir/ritonavir 800/100 mg once daily): 4.5
Kp at 24 h ([4]; intracellular (PBMC) / plasma, oral, Ctrough, group 2, period 2 (day 35): raltegravir 800 mg once daily + darunavir/ritonavir 800/100 mg once daily): 2.4

Reference: PMC3594701 (Journal of acquired immune deficiency syndromes (1999), 2011)
